Source: patent US20250268876A1, “TREATMENT OF HIDRADENITIS SUPPURATIVA WITH ORISMILAST” (UNION THERAPEUTICS A/S, priority 2021, published 2025)

What was measured:
[1] = target: human recombinant PDE4D protein (Homo sapiens, UniProt Q08499); experiment: PDE4D scintillation proximity assay (SPA); type: biochemical; conditions: purified human recombinant PDE4D
Description: PDE4 enzymatic activity was measured in a scintillation proximity assay using purified human recombinant PDE4D protein.

[2] = tested on: Hidradenitis suppurativa (HS); experiment: Phase 2a open-label trial of orismilast in HS patients; type: in vivo, human; conditions: for IHS4: Baseline 65; for VAS pain: Baseline 9; for DLQI: Baseline 25; for HiSQOL: Baseline 54
From the text: The following clinical trial may be performed using the compound of formula (I). Suitably the compound of formula (I) is orally administered to a subject in the form of a modified release composition, for example a modified release formulation described in WO 2020/148271, or as a composition described in Example 1 above. […] This is a phase 2, single-centre, prospective, open-label, single-arm, exploratory clinical trial assessing the efficacy and safety of orismilast in patients with mild, moderate, or severe HS as defined by the IHS4 scores: […] Eligible patients will receive treatment with orismilast tablets twice daily for 16 weeks. The treatment dose will be according to a predefined titration scheme and adapted to the observed tolerance of each patient. Treatment phase: […] Telephone consultation], and Week 2 [Visit 4]) (“BID” means bis in die, i.e. twice per day). Assessment of treatment efficacy will be undertaken using: • 1. Investigator assessments: • a. Counts of abscess, inflammatory nodule, and draining fistula at each on site visit day. • b. International Hidradenitis Suppurativa Severity Score System (IHS4) at each on site visit day. • c. Physician's Global Assessment of disease severity (HS-PGA) at each on site visit day. • 2. Patient assessments • a. Patients' Global Assessment of disease severity at Screening, Baseline, Week 2 (Visit 4), Week 8 (Visit 6), Week 12 (Visit 7), Week 16 (EoT, Visit 8), FU (Visit 9), and EoS (Visit 10). • b. Completion of questionnaires covering skin related quality of life DLQI at Screening, Baseline, Week 2 (Visit 4), Week 8 (Visit 6), Week 12 (Visit 7), Week 16 (EoT), FU, and EoS. • c. Completion of questionnaires covering HS specific quality of life (HiSQOL) at Screening, Baseline, Week 2 (Visit 4), Week 8 (Visit 6), Week 12 (Visit 7), Week 16 (EoT), FU, and EoS. • d. Completion of questionnaire covering skin pain (Patient's Global Assessment of Skin Pain) at each visit day. • e. Completion of questionnaire covering impact on work productivity (WPAI), anxiety and depression (HADS), fatigue (MFI-20), quality of life (EQ-5D), and McGill Pain questionnaire at Baseline, Week 16 (EoT), and EoS. • Counts of abscess, inflammatory nodule, and draining fistula. The lesions are defined in a Pan-European consensus paper ([…] et al., Dermatology. 2020; 236(5):431-438). […] An abscess is defined as a palpable lesion, with liquid content (pus), fluctuant, soft on palpation, diameter >10 mm, usually deep seated; acute, very painful phenomenon. […] A treatment target based on correlation between the changes in lesion counts and PROM (pain and HRQoL). Hidradenitis Suppurativa Clinical Response (HiSCR; a […] reduction from baseline in abscess and inflammatory nodule count and no increase in abscess or draining fistula counts) (Kimball et al., Ann Intern Med. 2012 Dec. 18; 157(12):846-55; Kimball et al., J Eur Acad Dermatol Venereol. 2016 June; 30(6):989-94). Subsequently modified for further differentiation: HiSCR75; a ≥75% reduction from baseline in abscess and inflammatory nodule count and no increase in abscess or draining fistula counts) and HiSCR-90; a ≥90% reduction from baseline in abscess and inflammatory nodule count and no increase in abscess or draining fistula counts) • International Hidradenitis Suppurativa Severity Score System (IHS4): […] The score is based on a count of inflamed lesions. The resulting IHS4 score is arrived at by the number of nodules (multiplied by 1) plus the number of abscesses (multiplied by 2) plus the number of draining tunnels (multiplied by 4). […] The six-point hidradenitis suppurativa Physician Global Assessment (PGA) ranges from clear to very severe (Kimball et al., Ann Intern Med. 2012 Dec. 18; 157(12):846-55). It is used in clinical trials to measure clinical improvement in inflammatory nodules, abscesses, and draining fistulae. The six stages are; • Clear: No inflammatory or non-inflammatory nodules. • Minimal: Only the presence of non-inflammatory nodules. • Mild: […]

Sequence of human recombinant PDE4D protein (Q08499 whole entry): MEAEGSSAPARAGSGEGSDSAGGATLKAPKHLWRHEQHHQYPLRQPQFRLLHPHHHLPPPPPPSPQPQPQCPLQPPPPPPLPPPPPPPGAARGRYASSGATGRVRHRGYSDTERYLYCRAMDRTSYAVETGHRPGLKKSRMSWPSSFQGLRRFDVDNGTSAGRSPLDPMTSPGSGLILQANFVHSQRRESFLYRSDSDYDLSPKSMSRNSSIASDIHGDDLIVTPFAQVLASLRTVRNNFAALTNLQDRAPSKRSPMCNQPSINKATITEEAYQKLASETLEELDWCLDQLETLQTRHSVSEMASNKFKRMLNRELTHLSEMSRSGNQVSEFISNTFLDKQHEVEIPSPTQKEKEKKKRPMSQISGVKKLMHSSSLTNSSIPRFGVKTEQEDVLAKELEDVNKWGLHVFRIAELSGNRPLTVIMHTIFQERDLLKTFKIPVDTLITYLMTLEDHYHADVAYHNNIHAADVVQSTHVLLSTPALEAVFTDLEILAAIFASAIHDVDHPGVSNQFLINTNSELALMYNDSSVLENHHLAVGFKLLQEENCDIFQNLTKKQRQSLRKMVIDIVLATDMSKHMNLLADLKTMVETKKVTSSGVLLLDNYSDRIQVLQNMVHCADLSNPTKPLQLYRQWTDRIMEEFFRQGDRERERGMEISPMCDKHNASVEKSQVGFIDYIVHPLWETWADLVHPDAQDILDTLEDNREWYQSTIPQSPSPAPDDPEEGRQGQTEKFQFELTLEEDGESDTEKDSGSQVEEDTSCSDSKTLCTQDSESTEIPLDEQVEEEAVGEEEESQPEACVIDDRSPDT

## O=C(Cc1c(Cl)c[n+]([O-])cc1Cl)c1ccc(OC(F)F)c2c1OC1(CCS(=O)(=O)CC1)O2 [Compound (I), 2-(3,5-Dichloro-1-oxido-pyridine-4-yl)-1-(7-difluoro-methoxy-2′,3′,5′,6′-tetrahydro-spiro[1,3-benzodioxole-2,4′-(4H)-thiopyran-1′,1′-dioxide]-4-yl)ethanone]
[1]
  EC50: 14.7 nM
[2]; first four HS patients enrolled, trial ongoing
  clinical response (in words): initial signs of improvement in HS
[2]; one patient refractory to conventional HS therapies
  clinical response (in words): immediate clinical improvement with reduction of tissue edema and pain, as well as increased mobility
[2]; one patient, severe HS, Day 14, 10 to 30 mg twice daily
  IHS4: 61
[2]; one patient, Day 14
  VAS pain: 7
  DLQI: 23
  HiSQOL: 42
[2]; one patient, Day 57
  VAS pain: 6
  DLQI: 22
  HiSQOL: 46
[2]; one patient, Day 57, 30 mg twice daily
  IHS4: 62
[2]; one patient, at day 14, baseline 402
  thrombocytes: 365
[2]; one patient, day 15
  patient's global assessment: very severe
[2]; one patient, day 57
  patient's global assessment: severe
[2]; one patient, day 57, baseline 14.0
  leukocytes: 11.5
[2]; one patient, day 57, baseline 89
  C-reactive protein: 84
[2]; one patient, day 57, baseline 94
  erythrocyte sedimentation rate: 88
[2]; one patient, during treatment to day 57
  physician's global assessment of disease activity: very severe
